Measured values as given in patent US12357711B2, “PSMA binding dual mode radiotracer and therapeutic” (Technische Universität München, priority 2019, dated 2025).

System: SCID mice
Assay: Preclinical dosimetry from biodistribution in mice, extrapolated to 70-kg Standard Adult (OLINDA/EXM 1.0)
Type: in vivo
Settings: 1.0 h bladder voiding interval
Experimental: 3-5 mice were injected per timepoint with a mean 25.6±3.6 MBq of 18F-rhPSMA-7 and 28.5±4.8 MBq of 18F-rhPSMA-7.3, respectively. Mice, severe combined immunodeficiency (SCID) were used for the experiments.
Mice were sacrificed at the following timepoints: • ^18F-rhPSMA-7: 10, 20, 40, 60, 120 and 180 minutes after administration. • ^18F-rhPSMA-7.3: 10, 60, 120, 180 and 300 minutes after administration.
Urine, blood, heart, lung, spleen, pancreas, liver, stomach (emptied), small intestine (emptied), large intestine (emptied), kidneys, bladder, testis, fat, muscle (partial, femoral), femur, tail and brain. Urine was collected with a pipette in the CO2 gas chamber. In case of missing urination in the chamber the bladder was aspirated with an insulin syringe. Blood was withdrawn instantly after sacrifice with an insulin syringe from the heart. All other tissues and organs were dissected and transferred directly in plastic containers.
The counting rates of measurement samples were automatically corrected for decay. The radioactivity distribution ratios (unit: percentage of the injected dose (% ID) in the measurement samples were determined using the equation below. The sum of the counting rates from all measurement samples obtained from one mouse was designated as the counting rate for administrated radioactivity.
The radioactivity distribution ratio per unit weight of the measurement sample (unit: % ID/g) excluding urine and feces samples was determined by using the equation below. The weight of the measurement sample was determined by subtraction of the empty measurement container from the container including the sample.
For consistency of statistical calculations for each radiotracer the same number of time-points for ^18F-rhPSMA-7 and ^18F-rhPSMA-7.3 was used. Therefore, for ^18F-rhPSMA-7 the 10 min and 20 min time points were combined creating a 15 min endpoint.
The time-integral of activity for the accumulation in the significant source organs (AUCs) were generated both with numerical integration and physical decay according to J Juan et al., Journal of Pharmaceutical Sciences, 1993, 82:762-763.
In brief, to calculate a human dosimetry from the biodistribution in the mice, an extrapolation was necessary to account for the differences between the animals and humans. Normal-organ radiation doses were estimated for the 70-kg Standard Adult anatomic model using time-depending organ activity concentrations (in percent of the injected dose per gram, % ID/g) and total-body activities measured in the biodistribution studies in mice.
Tissue activity concentrations in mice were converted to tissue fractional activities in the 70-kg Standard Adult using the relative fractional organ masses in the Standard Adult and the “standard” 25-gramm mouse. Time-dependent total-body activity was fit to an exponential function and the difference between the injected activity and the total-body activity was assumed to be excreted to the urine because activity concentrations in the liver and GI tracer were low at all time points studied.
Organ residence time was calculated by numerical integration using the trapezoidal rule and the rest-of-body ^18F residence times was calculated as the difference between the total-body residence time and the sum of the organ and urine residence times. The bladder contents residence time was estimated using the dynamic voiding model in the OLINDA/EXM 1.0 dosimetry software. Finally, the Standard Adult mean organ dose equivalents (in mSv/MBq) and effective dose (also in mSv/MBq) were then calculated using OLIN DA/EXM 1.0.
Final calculation of radiation absorbed dose and dosimetry from biodistribution in mice: The tissues or organs in which a significant accumulation of radioactivity occurs (i.e., source organ) were kidney, spleen, lung, liver and heart. With respect to activity accumulation and clearance, a rapid clearance from blood and clearance to urine but relatively slow build-up in kidney was found.

SMILES: CC(C)(C)[Si](F)(c1ccc(C(=O)NC[C@@H](NC(=O)CC[C@@H](C(=O)O)N2CCN(CC(=O)[O-])CCN(CC(=O)[O-])CCN(CC(=O)[O-])CC2)C(=O)N[C@H](CCCCNC(=O)CCC(=O)NCCC[C@@H](NC(=O)CC[C@H](NC(=O)N[C@@H](CCC(=O)O)C(=O)O)C(=O)O)C(=O)O)C(=O)O)cc1)C(C)(C)C.[Ga+3] [rhPSMA7.3, [^19F][^natGa]D-Dap-S-DOTAGA-rhPSMA7]
- Adrenals ED Cont.: 5.46E−05 mSv/MBq
- Adrenals EDE Cont.: 0.00E000 mSv/MBq
- Adrenals dose Alpha: 0.00E000 mSv/MBq
- Adrenals dose Beta: 3.12E−03 mSv/MBq
- Adrenals dose Photon: 7.79E−03 mSv/MBq
- Adrenals dose Total: 1.09E−02 mSv/MBq
- Brain ED Cont.: 3.59E−05 mSv/MBq
- Brain EDE Cont.: 0.00E000 mSv/MBq
- Brain dose Alpha: 0.00E000 mSv/MBq
- Brain dose Beta: 3.12E−03 mSv/MBq
- Brain dose Photon: 4.06E−03 mSv/MBq
- Brain dose Total: 7.18E−03 mSv/MBq
- Breasts ED Cont.: 3.32E−04 mSv/MBq
- Breasts EDE Cont.: 9.97E−04 mSv/MBq
- Breasts dose Alpha: 0.00E000 mSv/MBq
- Breasts dose Beta: 3.12E−03 mSv/MBq
- Breasts dose Photon: 3.53E−03 mSv/MBq
- Breasts dose Total: 6.65E−03 mSv/MBq
- Gallbladder Wall ED Cont.: 0.00E000 mSv/MBq
- Gallbladder Wall EDE Cont.: 0.00E000 mSv/MBq
- Gallbladder Wall dose Alpha: 0.00E000 mSv/MBq
- Gallbladder Wall dose Beta: 3.12E−03 mSv/MBq
- Gallbladder Wall dose Photon: 7.11E−03 mSv/MBq
- Gallbladder Wall dose Total: 1.02E−02 mSv/MBq
- Heart Wall ED Cont.: 0.00E000 mSv/MBq
- Heart Wall EDE Cont.: 0.00E000 mSv/MBq
- Heart Wall dose Alpha: 0.00E000 mSv/MBq
- Heart Wall dose Beta: 1.32E−03 mSv/MBq
- Heart Wall dose Photon: 5.36E−03 mSv/MBq
- Heart Wall dose Total: 6.68E−03 mSv/MBq
- Kidneys ED Cont.: 3.58E−04 mSv/MBq
- Kidneys EDE Cont.: 4.29E−03 mSv/MBq
- Kidneys dose Alpha: 0.00E000 mSv/MBq
- Kidneys dose Beta: 5.11E−02 mSv/MBq
- Kidneys dose Photon: 2.04E−02 mSv/MBq
- Kidneys dose Total: 7.16E−02 mSv/MBq
- LLI Wall ED Cont.: 1.39E−03 mSv/MBq
- LLI Wall EDE Cont.: 6.94E−04 mSv/MBq
- LLI Wall dose Alpha: 0.00E000 mSv/MBq
- LLI Wall dose Beta: 3.12E−03 mSv/MBq
- LLI Wall dose Photon: 8.45E−03 mSv/MBq
- LLI Wall dose Total: 1.16E−02 mSv/MBq
- Liver ED Cont.: 2.92E−04 mSv/MBq
- Liver EDE Cont.: 0.00E000 mSv/MBq
- Liver dose Alpha: 0.00E000 mSv/MBq
- Liver dose Beta: 9.70E−04 mSv/MBq
- Liver dose Photon: 4.87E−03 mSv/MBq
- Liver dose Total: 5.84E−03 mSv/MBq
- Lungs ED Cont.: 7.90E−04 mSv/MBq
- Lungs EDE Cont.: 7.90E−04 mSv/MBq
- Lungs dose Alpha: 0.00E000 mSv/MBq
- Lungs dose Beta: 1.95E−03 mSv/MBq
- Lungs dose Photon: 4.63E−03 mSv/MBq
- Lungs dose Total: 6.58E−03 mSv/MBq
- Muscle ED Cont.: 4.30E−05 mSv/MBq
- Muscle EDE Cont.: 0.00E000 mSv/MBq
- Muscle dose Alpha: 0.00E000 mSv/MBq
- Muscle dose Beta: 3.12E−03 mSv/MBq
- Muscle dose Photon: 5.47E−03 mSv/MBq
- Muscle dose Total: 8.59E−03 mSv/MBq
- Osteogenic Cells ED Cont.: 1.28E−04 mSv/MBq
- Osteogenic Cells EDE Cont.: 3.84E−04 mSv/MBq
- Osteogenic Cells dose Alpha: 0.00E000 mSv/MBq
- Osteogenic Cells dose Beta: 6.70E−03 mSv/MBq
- Osteogenic Cells dose Photon: 6.11E−03 mSv/MBq
- Osteogenic Cells dose Total: 1.28E−02 mSv/MBq
- Ovaries ED Cont.: 2.35E−03 mSv/MBq
- Ovaries EDE Cont.: 2.93E−03 mSv/MBq
- Ovaries dose Alpha: 0.00E000 mSv/MBq
- Ovaries dose Beta: 3.12E−03 mSv/MBq
- Ovaries dose Photon: 8.61E−03 mSv/MBq
- Ovaries dose Total: 1.17E−02 mSv/MBq
- Pancreas ED Cont.: 5.62E−05 mSv/MBq
- Pancreas EDE Cont.: 0.00E000 mSv/MBq
- Pancreas dose Alpha: 0.00E000 mSv/MBq
- Pancreas dose Beta: 3.12E−03 mSv/MBq
- Pancreas dose Photon: 8.12E−03 mSv/MBq
- Pancreas dose Total: 1.12E−02 mSv/MBq
- Red Marrow ED Cont.: 9.97E−04 mSv/MBq
- Red Marrow EDE Cont.: 9.97E−04 mSv/MBq
- Red Marrow dose Alpha: 0.00E000 mSv/MBq
- Red Marrow dose Beta: 2.22E−03 mSv/MBq
- Red Marrow dose Photon: 6.09E−03 mSv/MBq
- Red Marrow dose Total: 8.31E−03 mSv/MBq
- Skin ED Cont.: 6.57E−05 mSv/MBq
- Skin EDE Cont.: 0.00E000 mSv/MBq
- Skin dose Alpha: 0.00E000 mSv/MBq
- Skin dose Beta: 3.12E−03 mSv/MBq
- Skin dose Photon: 3.45E−03 mSv/MBq
- Skin dose Total: 6.57E−03 mSv/MBq
- Small Intestine ED Cont.: 5.45E−05 mSv/MBq
- Small Intestine EDE Cont.: 0.00E000 mSv/MBq
- Small Intestine dose Alpha: 0.00E000 mSv/MBq
- Small Intestine dose Beta: 3.12E−03 mSv/MBq
- Small Intestine dose Photon: 7.78E−03 mSv/MBq
- Small Intestine dose Total: 1.09E−02 mSv/MBq
- Spleen ED Cont.: 1.33E−04 mSv/MBq
- Spleen EDE Cont.: 1.59E−03 mSv/MBq
- Spleen dose Alpha: 0.00E000 mSv/MBq
- Spleen dose Beta: 1.52E−02 mSv/MBq
- Spleen dose Photon: 1.14E−02 mSv/MBq
- Spleen dose Total: 2.66E−02 mSv/MBq
- Stomach Wall ED Cont.: 1.19E−03 mSv/MBq
- Stomach Wall EDE Cont.: 0.00E000 mSv/MBq
- Stomach Wall dose Alpha: 0.00E000 mSv/MBq
- Stomach Wall dose Beta: 3.12E−03 mSv/MBq
- Stomach Wall dose Photon: 6.80E−03 mSv/MBq
- Stomach Wall dose Total: 9.92E−03 mSv/MBq
- Testes ED Cont.: 0.00E000 mSv/MBq
- Testes EDE Cont.: 0.00E000 mSv/MBq
- Testes dose Alpha: 0.00E000 mSv/MBq
- Testes dose Beta: 3.12E−03 mSv/MBq
- Testes dose Photon: 6.08E−03 mSv/MBq
- Testes dose Total: 9.20E−03 mSv/MBq
- Thymus ED Cont.: 4.09E−05 mSv/MBq
- Thymus EDE Cont.: 0.00E000 mSv/MBq
- Thymus dose Alpha: 0.00E000 mSv/MBq
- Thymus dose Beta: 3.12E−03 mSv/MBq
- Thymus dose Photon: 5.06E−03 mSv/MBq
- Thymus dose Total: 8.18E−03 mSv/MBq
- Thyroid ED Cont.: 4.13E−04 mSv/MBq
- Thyroid EDE Cont.: 2.48E−04 mSv/MBq
- Thyroid dose Alpha: 0.00E000 mSv/MBq
- Thyroid dose Beta: 3.12E−03 mSv/MBq
- Thyroid dose Photon: 5.15E−03 mSv/MBq
- Thyroid dose Total: 8.27E−03 mSv/MBq
- Total Body ED Cont.: 0.00E000 mSv/MBq
- Total Body EDE Cont.: 0.00E000 mSv/MBq
- Total Body dose Alpha: 0.00E000 mSv/MBq
- Total Body dose Beta: 3.45E−03 mSv/MBq
- Total Body dose Photon: 5.42E−03 mSv/MBq
- Total Body dose Total: 8.87E−03 mSv/MBq
- ULI Wall ED Cont.: 5.23E−05 mSv/MBq
- ULI Wall EDE Cont.: 0.00E000 mSv/MBq
- ULI Wall dose Alpha: 0.00E000 mSv/MBq
- ULI Wall dose Beta: 3.12E−03 mSv/MBq
- ULI Wall dose Photon: 7.33E−03 mSv/MBq
- ULI Wall dose Total: 1.05E−02 mSv/MBq
- Urinary Bladder Wall ED Cont.: 3.92E−03 mSv/MBq
- Urinary Bladder Wall EDE Cont.: 4.70E−03 mSv/MBq
- Urinary Bladder Wall dose Alpha: 0.00E000 mSv/MBq
- Urinary Bladder Wall dose Beta: 5.18E−02 mSv/MBq
- Urinary Bladder Wall dose Photon: 2.66E−02 mSv/MBq
- Urinary Bladder Wall dose Total: 7.84E−02 mSv/MBq
- Uterus ED Cont.: 7.13E−05 mSv/MBq
- Uterus EDE Cont.: 8.55E−04 mSv/MBq
- Uterus dose Alpha: 0.00E000 mSv/MBq
- Uterus dose Beta: 3.12E−03 mSv/MBq
- Uterus dose Photon: 1.11E−02 mSv/MBq
- Uterus dose Total: 1.43E−02 mSv/MBq
